Source: US7138361B2, “Herbicidal heterocycles” (E. I. du Pont de Nemours and Company, priority 2000, dated 2006)

Assays:
Assay type in all cases: in vivo
[1] = tested on: Surinam grass (Brachiaria decumbens); experiment: Test B preemergence
Procedure, shortened: (§1)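 Preemergence: seeds planted and treated with test chemicals in non-phytotoxic solvent with surfactant; postemergence on plants 2–18 cm (1- to 4-leaf stage). Kept in greenhouse 13–15 days, then visually rated against controls on a 0 (no effect) to 100 (complete control) scale.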

[2] = tested on: barnyardgrass (Echinochloa crus-galli); experiment: Test B preemergence; details: scale 0 to 100, 0 no effect, 100 complete control
Procedure, shortened: as §1

[3] = tested on: cocklebur (Xanthium strumarium); experiment: Test B preemergence
Procedure, shortened: as §1

corn (Zea mays) = experiment: Test B preemergence; details: scale 0 to 100, 0 no effect, 100 complete control
Procedure, shortened: as §1

[4] = tested on: crabgrass (Digitaria sanguinalis); experiment: Test B preemergence
Procedure, shortened: as §1

[5] = tested on: giant foxtail (Setaria faberii); experiment: Test B preemergence
Procedure, shortened: as §1

[6] = tested on: lambsquarters (Chenopodium album); experiment: Test B preemergence
Procedure, shortened: as §1

[7] = tested on: morning glory (Ipomoea hederacea); experiment: Test B preemergence
Procedure, shortened: as §1

[8] = tested on: pigweed (Amaranthus retroflexus); experiment: Test B preemergence
Procedure, shortened: as §1

rice (Oryza saliva) = experiment: Test B preemergence
Procedure, shortened: as §1

[9] = tested on: velvetleaf (Abutilon theophrasti); experiment: Test B preemergence
Procedure, shortened: as §1

Nightshade = experiment: Test C preemergence
[10] = tested on: Surinam grass (Brachiaria decumbens); experiment: Test C preemergence; details: for Plant response rating (0 to 100), Surinam grass: visual evaluation after 12 to 14 days
Procedure, shortened: (§2)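 Each compound was dissolved in a non-phytotoxic solvent system containing a surfactant and sprayed either on freshly planted seeds (preemergence) or on young plants, 2 to 18 cm high (postemergence). Ratings after 12 to 14 greenhouse days ran from 0, no effect, to 100, complete control.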

[11] = tested on: crabgrass (Digitaria sanguinalis); experiment: Test C preemergence; details: for Plant response rating (0 to 100), Crabgrass: visual evaluation after 12 to 14 days
Procedure, shortened: as §2

[12] = tested on: lambsquarters (Chenopodium album); experiment: Test C preemergence
Procedure, shortened: as §2

[13] = tested on: pigweed (Amaranthus retroflexus); experiment: Test C preemergence
Procedure, shortened: as §2

soybean (Glycine max) = experiment: Test C preemergence
Procedure, shortened: as §2

[14] = tested on: woolly cupgrass (Eriochloa villosa); experiment: Test C preemergence; details: for Plant response rating (0 to 100), Cupgrass, Woolly: visual evaluation after 12 to 14 days
Procedure, shortened: as §2

[15] = tested on: cocklebur (Xanthium strumarium); experiment: Test C preemergence; details: for Plant response rating (0 to 100), Cocklebur: visual evaluation after 12 to 14 days
Procedure, shortened: as §2

[16] = tested on: common ragweed (Ambrosia elatior); experiment: Test C preemergence; details: preemergence
Procedure, shortened: as §2

[17] = tested on: goosegrass (Eleusine indica); experiment: Test C preemergence; details: for Plant response rating (0 to 100), Goosegrass: visual evaluation after 12 to 14 days
Procedure, shortened: as §2

[18] = Preemergence, Rate 500 g/ha, scale 0 to 100, 0 no effect, 100 complete control
[19] = preemergence, Rate 125 g/ha, scale 0 to 100, 0 no effect, 100 complete control
[20] = Rate 62 g/ha, scale 0 to 100, 0 no effect, 100 complete control
[21] = Rate 125 g/ha, scale 0 to 100, 0 no effect, 100 complete control
[22] = preemergence, Rate 31 g/ha, scale 0 to 100
[23] = preemergence, Rate 125 g/ha, scale of 0 to 100 where 0 is no effect and 100 is complete control, 13 to 15 days
[24] = Rate 250 g/ha, scale 0 to 100, 0 no effect, 100 complete control
[25] = preemergence, Rate 500 g/ha, visual evaluation after 12 to 14 days
[26] = preemergence, Rate 250 g/ha, scale 0 to 100, 0 no effect, 100 complete control

COc1cc(N2CCC(n3ccc(C(C)(C)C)n3)C2=O)ccc1C (stereo not drawn) [Compound 42]
Plant response rating, Surinam grass [1, 18]: 100 | Plant response rating, Surinam grass [1, 19]: 90 | Plant response rating, Barnyardgrass ([2]; Preemergence, Rate 500 g/ha): 100 | Plant response rating, Barnyardgrass ([2]; preemergence, Rate 125 g/ha): 100 | Plant response rating, Cocklebur [3, 18]: 70 | Plant response rating, Cocklebur [3, 19]: 0 | Plant response rating, Corn (corn (Zea mays); Preemergence, Rate 500 g/ha): 20 | Plant response rating, Corn (corn (Zea mays); preemergence, Rate 125 g/ha): 20 | Plant response rating, Crabgrass [4, 18]: 100 | Plant response rating, Crabgrass [4, 19]: 100 | Plant response rating, Foxtail, Giant [5, 18]: 100 | Plant response rating, Foxtail, Giant [5, 19]: 100 | Plant response rating, Lambsquarters [6, 18]: 100 | Plant response rating, Lambsquarters [6, 19]: 100 | Plant response rating, Morningglory [7, 18]: 100 | Plant response rating, Pigweed [8, 18]: 100 | Plant response rating, Rice (rice (Oryza saliva); [18]): 100 | Plant response rating, Velvetleaf [9, 18]: 90 | Plant response rating, Nightshade (Nightshade; Rate 31 g/ha, scale 0 to 100): 0 | Plant response rating, Nightshade (Nightshade; [20]): 0 | Plant response rating, Nightshade (Nightshade; [21]): 100 | Plant response rating, Surinam grass [10, 20]: 70 | Plant response rating, Surinam grass [10, 22]: 0 | Plant response rating, Surinam grass [10, 19]: 90 | Plant response rating, Crabgrass [11, 20]: 90 | Plant response rating, Crabgrass [11, 22]: 40 | Plant response rating, Crabgrass [11, 19]: 100 | Plant response rating, Lambsquarters [12, 20]: 100 | Plant response rating, Lambsquarters [12, 22]: 20 | Plant response rating, Lambsquarters [12, 19]: 100 | Plant response rating, Pigweed [13, 20]: 60 | Plant response rating, Pigweed [13, 22]: 0 | Plant response rating, Pigweed [13, 19]: 100 | Plant response rating, Soybean (soybean (Glycine max); [20]): 50 | Plant response rating, Soybean (soybean (Glycine max); [22]): 20 | Plant response rating, Soybean (soybean (Glycine max); [19]): 50 | Plant response rating, Cupgrass, Woolly [14, 20]: 20 | Plant response rating, Cupgrass, Woolly [14, 22]: 0 | Plant response rating, Cupgrass, Woolly [14, 19]: 100

CC(C)Oc1cccc(N2CCC(n3ccc(C(C)(C)C)n3)C2=O)c1 (stereo not drawn) [Compound 70]
Plant response rating, Surinam grass [1, 18]: 0 | Plant response rating, Surinam grass [1, 23]: 0 | Plant response rating, Cocklebur [3, 18]: 0 | Plant response rating, Cocklebur [3, 23]: 0 | Plant response rating, Crabgrass [4, 18]: 100 | Plant response rating, Crabgrass [4, 23]: 90 | Plant response rating, Foxtail, Giant [5, 18]: 100 | Plant response rating, Foxtail, Giant [5, 23]: 90 | Plant response rating, Lambsquarters [6, 18]: 100 | Plant response rating, Lambsquarters [6, 23]: 100 | Plant response rating, Morningglory [7, 18]: 80 | Plant response rating, Morningglory [7, 23]: 20 | Plant response rating, Pigweed [8, 18]: 100 | Plant response rating, Pigweed [8, 23]: 100 | Plant response rating, Rice (rice (Oryza saliva); [18]): 30 | Plant response rating, Rice (rice (Oryza saliva); [23]): 30 | Plant response rating, Velvetleaf [9, 18]: 0 | Plant response rating, Velvetleaf [9, 23]: 0 | Plant response rating, Nightshade (Nightshade; Rate 31 g/ha, scale 0 to 100): 20 | Plant response rating, Nightshade (Nightshade; [20]): 30 | Plant response rating, Nightshade (Nightshade; [21]): 50 | Plant response rating, Nightshade (Nightshade; [24]): 70 | Plant response rating, Surinam grass [10, 20]: 60 | Plant response rating, Surinam grass [10, 22]: 20 | Plant response rating (0 to 100), Surinam grass ([10]; preemergence, Rate 250 g/ha): 70 | Plant response rating (0 to 100), Surinam grass ([10]; preemergence, Rate 500 g/ha): 80 | Plant response rating, Surinam grass [10, 19]: 70 | Plant response rating, Cocklebur [15, 20]: 0 | Plant response rating, Cocklebur [15, 22]: 0 | Plant response rating (0 to 100), Cocklebur ([15]; preemergence, Rate 250 g/ha): 0 | Plant response rating (0 to 100), Cocklebur ([15]; preemergence, Rate 500 g/ha): 20 | Plant response rating, Cocklebur [15, 19]: 0 | Plant response rating, Ragweed, Common ([16]; Rate 31 g/ha, scale 0 to 100): 0 | Plant response rating (0 to 100), Ragweed, Common ([16]; Rate 500 g/ha, visual evaluation after 12 to 14 days): 100 | Plant response rating, Ragweed, Common [16, 21]: 60 | Plant response rating, Ragweed, Common [16, 24]: 80 | Plant response rating, Crabgrass [11, 20]: 100 | Plant response rating, Crabgrass [11, 22]: 30 | Plant response rating (0 to 100), Crabgrass ([11]; preemergence, Rate 250 g/ha): 100 | Plant response rating (0 to 100), Crabgrass ([11]; preemergence, Rate 500 g/ha): 100 | Plant response rating, Crabgrass [11, 19]: 100 | Plant response rating, Goosegrass [17, 20]: 90 | Plant response rating, Goosegrass [17, 22]: 30 | Plant response rating (0 to 100), Goosegrass ([17]; preemergence, Rate 250 g/ha): 100 | Plant response rating (0 to 100), Goosegrass ([17]; preemergence, Rate 500 g/ha): 100 | Plant response rating, Goosegrass [17, 19]: 100 | Plant response rating, Lambsquarters [12, 20]: 100 | Plant response rating (0 to 100), Lambsquarters [12, 25]: 100 | Plant response rating, Lambsquarters [12, 19]: 100 | Plant response rating, Lambsquarters [12, 26]: 100 | Plant response rating, Pigweed [13, 22]: 0 | Plant response rating (0 to 100), Pigweed [13, 25]: 100 | Plant response rating, Pigweed [13, 19]: 20 | Plant response rating, Pigweed [13, 26]: 0 | Plant response rating, Soybean (soybean (Glycine max); [22]): 0 | Plant response rating (0 to 100), Soybean (soybean (Glycine max); [25]): 20 | Plant response rating, Soybean (soybean (Glycine max); [19]): 10 | Plant response rating, Soybean (soybean (Glycine max); [26]): 20 | Plant response rating, Cupgrass, Woolly [14, 20]: 70 | Plant response rating, Cupgrass, Woolly [14, 22]: 0 | Plant response rating (0 to 100), Cupgrass, Woolly ([14]; preemergence, Rate 250 g/ha): 100 | Plant response rating (0 to 100), Cupgrass, Woolly ([14]; preemergence, Rate 500 g/ha): 100 | Plant response rating, Cupgrass, Woolly [14, 19]: 100
